In data set [1] the target is 4-aminobutyrate aminotransferase, mitochondrial (Sus scrofa) (UniProt P80147). The data set can be described thus: Compound was tested for inactivation of Gamma-amino-N-butyrate transaminase in pig brain at pH of 8.5 and 25 degree C.
For data set [2], the target named is T1, 4-aminobutyrate aminotransferase, mitochondrial (Sus scrofa, UniProt P80147). The data set can be described thus: Compound was tested for inhibitory constant of Gamma-amino-N-butyrate transaminase in pig brain at pH of 6.5.
The target of data set [3] is T1, 4-aminobutyrate aminotransferase, mitochondrial. The data set can be described thus: Compound was tested for inhibitory constant of Gamma-amino-N-butyrate transaminase in pig brain at pH of 8.5 and 25 degree C.
The target of data set [4] is 4-aminobutyrate aminotransferase, mitochondrial (Sus scrofa) (UniProt P80147). The data set can be described thus: Compound was tested for inactivation of Gamma-amino-N-butyrate transaminase in pig brain at pH of 6.5.
A short description of data set [5]: Maximal rate constant was determined. It counts as ADME.
Data set [6] in a line: Michaelis-Menten constant was determined. It counts as ADME.

Sequence of 4-aminobutyrate aminotransferase, mitochondrial (Sus scrofa) (P80147 whole entry): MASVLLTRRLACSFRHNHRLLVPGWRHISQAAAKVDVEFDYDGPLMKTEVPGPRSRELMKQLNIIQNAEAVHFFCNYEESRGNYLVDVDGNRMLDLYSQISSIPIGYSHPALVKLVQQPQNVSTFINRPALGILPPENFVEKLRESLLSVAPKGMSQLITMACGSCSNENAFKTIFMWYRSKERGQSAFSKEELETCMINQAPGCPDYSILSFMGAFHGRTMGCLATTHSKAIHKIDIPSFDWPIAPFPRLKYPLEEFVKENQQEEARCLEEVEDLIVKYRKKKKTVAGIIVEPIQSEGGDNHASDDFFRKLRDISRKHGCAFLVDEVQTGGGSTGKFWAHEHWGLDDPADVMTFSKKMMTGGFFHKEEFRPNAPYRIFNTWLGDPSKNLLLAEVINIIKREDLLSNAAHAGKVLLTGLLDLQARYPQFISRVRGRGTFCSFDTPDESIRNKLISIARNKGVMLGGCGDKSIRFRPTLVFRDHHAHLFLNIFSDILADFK
T1 sequence (P80147 whole entry): as above

For `NC(CF)CCC(=O)O` (stereo not given), the results for the K inact in data set [1] and in data set [4] were 0.5 min⁻¹ and 0.31 min⁻¹, respectively. Besides, the figures for the Ki in data set [2] and in data set [3] were 105000 µM and 395 µM, respectively.

Turning to `NC/C=C/C(=O)O` [t-4-AMINOCROTONIC ACID (TACA)], the Vmax in data set [5] was found to be 0.35 µM/min/mg. For the same molecule, the Km in data set [6] was found to be 1300 µM.

As for `NCCCC(=O)O` [GAMMA-AMINOBUTYRIC ACID], the Vmax in data set [5] stood at 0.14 µM/min/mg. For the same molecule, in data set [6], the Km was determined as 1100 µM.

Molecule `NC(/C=C/C(=O)O)CF` (stereo not given) came in with an inhibitory constant (Ki) in data set [2] of 2000 µM. In data set [4], this molecule came in with a K inact of 0.061 min⁻¹.

(Values after ChEMBL document CHEMBL1123222, “Inactivation of gamma-aminobutyric acid aminotransferase by (S,E)-4-amino-5-fluoropent-2-enoic acid and effect on the enzyme of (E)-3-(1-aminocyclopropyl)-2-propenoic acid” (J Med Chem, 1986).)
